From US8394786B2, “Quinazoline derivatives” (Janssen Pharmaceutica N.V., priority 2003, dated 2013)

Experiments:
SKOV3 cells = test: Serum starved proliferation assay on the ovarian carcinoma SKOV3 cells (C3); type: cell-based; settings: EGF stimulated (100 ng/ml, 72 hours, serum free) or 72 hours with compounds, MTT cell viability assay; for IC50: Homo sapiens, SK-OV-3, 72 h, read-out: SKOV3 cell (C3): pIC50 (converted)
Protocol: The ovarian carcinoma cell line (SKOV3) was used in an epidermal growth factor stimulated cell proliferation assay, to assess the inhibitory effect of the compounds on EGF in whole cells.
In a first step the SKOV3 cells were incubated for 24 hours in the presence of 10% FCS serum. In the second step the cells were incubated with the compounds to be tested in a serum free condition (37° C. and 5% (v/v) CO2) and subsequently stimulated for 72 hours with EGF at a final concentration of 100 ng/ml. The effect of the compounds on the EGF stimulation was finally assessed in a standard MTT cell viability assay.
Alternatively, the SKOV3 cells were incubated for 24 hours in the presence of 10% FCS serum. In the second step the cells were incubated for 72 hours with the compounds to be tested and the effect of the compounds on cell proliferation was finally assessed in a standard MTT cell viability assay.

EGFR = EGFR (Homo sapiens, UniProt P00533); test: In vitro inhibition of EGFR, Flash Plate or glass-fiber filter technology (C2); type: biochemical; set-up: 0.5 μg EGFR-kinase domain/well; settings: EGFR-kinase domain, 5.0 μM unlabeled ATP; for IC50: read-out: Kinase activity.(C2): pIC50 (converted)
Protocol: The in vitro inhibition of EGFR was assessed using either the Flash Plate technology or the glass-fiber filter technology as described by Davies, S. P. et al., Biochem J. (2000), 351; p. 95-105. The Flash Plate technology is generally described by B. A. Brown et al. in High Throughput Screening (1997), p. 317-328. Editor(s): Devlin, John P. Publisher: Dekker, New York, N.Y.
In the Flash Plate EGFR kinase reaction assay, a kinase substrate consisting of biotinylated poly(L-glutamic acid-L-tyrosine) (poly(GT)biotin), is incubated with the aforementioned protein in the presence of (^33P) radiolabeled ATP. (^33P) phosphorylation of the substrate is subsequently measured as light energy emitted using a streptavidin-coated Flash Plate (PerkinElmer Life Sciences) by trapping and quantifying the binding of the biotin tagged and radiolabeled substrate.
The EGFR kinase reaction is performed at 30° C. for 60 minutes in a 96-well microtiter FlashPlate (PerkinElmer Life Sciences). For each of the tested compounds a full dose response 1·10^−6M to 1·10^−10M has been performed. IRESSA° and Tarceva™ (erlotinib) were used as reference compounds. The 100 μl reaction volume contains 54.5 mM TrisHCl pH 8.0, 10 mM MgCl2, 100 μM Na3VO4, 5.0 μM unlabeled ATP, 1 mM DTT, 0.009% BSA, 0.8 μCi AT^33P, 0.35 μg/well poly(GT)biotin and 0.5 μg EGFR-kinase domain/well.
The reaction is stopped by aspirating the reaction mixture and washing the plate 3× with 200 μl wash/stop buffer (PBS+100 mM EDTA). After the final wash step 200 μl of wash/stop buffer was added to each well and the amount of phosphorylated (^33P) Poly(GT)biotin determined by counting (30 sec/well) in a microtiterplate scintillation counter.
In the glass-fiber filter technology EGFR kinase reaction assay, a kinase substrate consisting of poly(L-glutamic acid-L-tyrosine) (poly(GT)), is incubated with the aforementioned protein in the presence of (^33P) radiolabeled ATP. (^33P) Phosporylation of the substrate is subsequently measured as radioactivity bound on a glassfiber-filter.
The EGFR kinase reaction is performed at 25° C. for 10 minutes in a 96-well microtiterplate. For each of the tested compounds a full dose response 1·10^−6M to 1·10^−10M has been performed. IRESSA° and Tarceva™ (erlotinib) were used as reference compounds. The 25 μl reaction volume contains 60 mM TrisHCl pH 7.5, 3 mM MgCl2, 3 mM Mn Cl2, 3 μM Na3VO4, 50 μg/ml PEG20000, 5.0 μM unlabeled ATP, 1 mM DTT, 0.1 μCi AT^33P, 62.5 ng/well poly(GT) and 0.5 μg EGFR-kinase domain/well.
The reaction is stopped by adding 5 μl of a 3% phosphoric acid solution. 10 μl of the reaction mixture is then spotted onto a Filtermat A filter (Wallac) and washed 3 times for 5 min. in 75 mM phosphoric acid and 1 time for 5 min. in methanol prior to drying and quantification on the Typhoon (Amersham) using a LE phosphorage storage screen.

| SKOV3 cell (C3): pIC50 (SKOV3 cells) | Kinase activity.(C2): pIC50 (EGFR) | IC50 (SKOV3 cells) [nM] | IC50 (EGFR) [nM] | Compound |
| --- | --- | --- | --- | --- |
| 6.8 | 6.4 |  |  | 4,6-ethanediylidene-8H-pyrimido[4,5-b][6,1,12,15]benzoxatriazacyclooctadecine-12,15(16H)-dione, 20-chloro-9,10,11,13,14,17,22-heptahydro-23-methoxy-14-methyl- [Compound 139] |
| 7.3 | 7.2 |  |  | 4,6-ethanediylidene-12H-pyrimido[4,5-b]pyrrolo[2,1-1][6,1,10,13]benzoxatriazacyclohexadecin-12-one, 20-chloro-19-fluoro-8,9,10,11,12a,13,14,15,17,22-decahydro-23-methoxy- [Compound 103] |
| 5.1 | 7.7 |  |  | 4,6-ethenopyrimido[4,5-b][6,1,9,14]benzoxatriazacycloheptadecine-9,14(8H,15H)-dione, 19-chloro-10,11,12,13,16,21-hexahydro-22-methoxy- [Compound 150] |
|  |  | 288 | 3.98 | COc1cc2ncnc3c2cc1OCCCCNCCc1ccc(Cl)cc1N3 [Compound 32, 4,6-ethanediylidenepyrimido[4,5-b][6,1,11]benzoxadiazacyclopentadecine, 17-chloro-8,9,10,11,12,13,14,19-octahydro-20-methoxy-] |
|  |  | 63.1 | 501 | COc1cc2ncnc3c2cc1OCCNCC(=O)NCCCc1ccc(Cl)cc1N3 [Compound 42, 4,6-ethanediylidenepyrimido[4,5-b][6,1,9,12]benzoxatriazacycloheptadecin-12(13H)-one, 19-chloro-8,9,10,11,14,15,16,21-octahydro-22-methoxy-] |
|  |  | 501 | 79.4 | COc1cc2ncnc3c2cc1OCCN(C(=O)CN(C)CCO)CC(=O)NCCCc1ccc(Cl)cc1N3 [Compound 43, 4,6-ethanediylidenepyrimido[4,5-b][6,1,9,12]benzoxatriazacycloheptadecin-12(13H)-one, 19-chloro-8,9,10,11,14,15,16,21-octahydro-10-[[(2-hydroxyethyl)methylamino]acetyl]-22-methoxy-] |
|  |  | 7940 | 631 | COc1cc2ncnc3c2cc1OCCN(C(=O)CNC(CO)CO)CC(=O)NCCCc1ccc(Cl)cc1N3 [Compound 44, 4,6-ethanediylidenepyrimido[4,5-b][6,1,9,12]benzoxatriazacycloheptadecin-12(13H)-one, 19-chloro-8,9,10,11,14,15,16,21-octahydro-10-[[[2-hydroxy-1-(hydroxymethyl)ethyl]amino]acetyl]-22-methoxy-] |
|  |  | 10000 | 158 | COc1cc2ncnc3c2cc1OCCN(C(=O)CN1CCOC(CO)C1)CC(=O)NCCCc1ccc(Cl)cc1N3 (stereo not drawn) [Compound 45, 4,6-ethanediylidenepyrimido[4,5-b][6,1,9,12]benzoxatriazacycloheptadecin-12(13H)-one, 19-chloro-8,9,10,11,14,15,16,21-octahydro-10-[[2-(hydroxymethyl)-4-morpholinyl]acetyl]-22-methoxy-] |
|  |  | 7940 | 200 | COc1cc2ncnc3c2cc1OCCN(C(=O)CNCCc1ccncc1)CC(=O)NCCCc1ccc(Cl)cc1N3 [Compound 46, 4,6-ethanediylidenepyrimido[4,5-b][6,1,9,12]benzoxatriazacycloheptadecin-12(13H)-one, 19-chloro-8,9,10,11,14,15,16,21-octahydro-22-methoxy-10-[[[2-(4-pyridinyl)ethyl]amino]acetyl]-] |
|  |  | 1580 | 126 | COc1cc2ncnc3c2cc1OCCN(C(=O)CN(C)CCN(C)C)CC(=O)NCCCc1ccc(Cl)cc1N3 [Compound 47, 4,6-ethanediylidenepyrimido[4,5-b][6,1,9,12]benzoxatriazacycloheptadecin-12(13H)-one, 19-chloro-10-[[[2-(dimethylamino)ethyl]methylamino]acetyl]-8,9,10,11,14,15,16,21-octahydro-22-methoxy-] |
|  |  | 1580 | 316 | COCCNCC(=O)N1CCOc2cc3c(ncnc3cc2OC)Nc2cc(Cl)ccc2CCCNC(=O)C1 [Compound 48, 4,6-ethanediylidenepyrimido[4,5-b][6,1,9,12]benzoxatriazacycloheptadecin-12(13H)-one, 19-chloro-8,9,10,11,14,15,16,21-octahydro-22-methoxy-10-[[(2-methoxyethyl)amino]acetyl]-] |
|  |  | 794 | 398 | COCCCNCC(=O)N1CCOc2cc3c(ncnc3cc2OC)Nc2cc(Cl)ccc2CCCNC(=O)C1 [Compound 49, 4,6-ethanediylidenepyrimido[4,5-b][6,1,9,12]benzoxatriazacycloheptadecin-12(13H)-one, 19-chloro-8,9,10,11,14,15,16,21-octahydro-22-methoxy-10-[[(3-methoxypropyl)amino]acetyl]-] |
|  |  | 398 |  | COc1cc2ncnc3c2cc1OCCN(C(=O)CN1CCN(C)CC1)CC(=O)NCCCc1ccc(Cl)cc1N3 [Compound 51, 4,6-ethanediylidenepyrimido[4,5-b][6,1,9,12]benzoxatriazacycloheptadecin-12(13H)-one, 19-chloro-8,9,10,11,14,15,16,21-octahydro-22-methoxy-10-[(4-methyl-1-piperazinyl)acetyl]-] |
|  |  |  | 3980 | COc1cc2ncnc3c2cc1OCCCC=CCC(NC(=O)OC(C)(C)C)C(=O)NCc1ccc(Cl)cc1N3 (stereo not drawn) [Compound 110, carbamic acid, (20-chloro-9,10,13,14,15,16,17,22-octahydro-23-methoxy-15-oxo-4,6-ethanediylidene-8H-pyrimido[4,5-b][6,1,15]benzoxadiazacyclooctadecin-14-yl)-, 1,1-dimethylethyl ester] |
|  |  | 10000 |  | CCC(C)C1NC(=O)COc2cc3c(ncnc3cc2OC)Nc2ccccc2CNC1=O (stereo not drawn) [Compound 124, 4,6-ethanediylidenepyrimido[4,5-b][6,1,9,12]benzoxatriazacyclopentadecine-9,12(8H,13H)-dione, 10,11,14,19-tetrahydro-20-methoxy-11-(1-methylpropyl)-] |
|  |  | 10000 |  | COc1cc2ncnc3c2cc1OCC(=O)NC(C)(C)C(=O)NCc1ccc(Cl)cc1N3 [Compound 132, 4,6-ethanediylidenepyrimido[4,5-b][6,1,9,12]benzoxatriazacyclopentadecine-9,12(8H,13H)-dione, 17-chloro-10,11,14,19-tetrahydro-20-methoxy-11,11-dimethyl-] |
|  |  | 10000 |  | COc1cc2ncnc3c2cc1OCC(=O)NCC(=O)NCc1ccccc1N3 [Compound 156, 4,6-ethanediylidenepyrimido[4,5-b][6,1,9,12]benzoxatriazacyclopentadecine-9,12(8H,13H)-dione, 10,11,14,19-tetrahydro-20-methoxy-] |
|  |  | 10000 |  | COc1cc2ncnc3c2cc1OCC(=O)NCCC(=O)NCc1ccccc1N3 [Compound 157, 4,6-ethanediylidene-8H-pyrimido[4,5-b][6,1,9,13]benzoxatriazacyclohexadecine-9,13(10H,14H)-dione, 11,12,15,20-tetrahydro-21-methoxy-] |
